Assay [1] concerns CPC-N (Small Cell Lung Carcinoma). Briefly: Bliss excess, mean over the matrix (fraction); higher = more synergy. The gist of the method:
(§1)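 After 24 hours at 37°C and 5% CO2 in 1536-well plates, cells in DMEM/F12 or RPMI plus 10% FBS received two-drug dose matrices for 72 hours. Viability came from CellTiter-Glo 2.0 luminescence and was scaled as inhibition, anchored at 0 by vehicle wells and at 1 by blank wells. Combination Emax is taken as the second-highest inhibition in the matrix, and Bliss excess as the observed combination effect less EA + EB − EA·EB, with EA and EB the single-agent effects.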

Assay [2] has as its system C-33-A (Cervical Carcinoma). The assay is described as above. The gist of the method:
as §1

Assay [3] concerns NCI-H3118 (Head and Neck Carcinoma). The assay is described as above. The gist of the method: as §1
Assay [4] relates to MONO-MAC-6 (Acute Myeloid Leukemia). The description is as above. The gist of the method:
as §1

Assay [5] concerns LCLC-103H (Non-Small Cell Lung Carcinoma). The assay is described as above. The gist of the method: as §1
Assay [6] relates to HPAF-II (Pancreatic Carcinoma). The description is as above. The gist of the method: as §1
Assay [7] deals with SNU-423 (Hepatocellular Carcinoma). The assay is described as above. The gist of the method: as §1
In assay [8] the test system is NCI-H226 (Mesothelioma). The assay is described as above. The gist of the method:
as §1

Assay [9] deals with COR-L88 (Small Cell Lung Carcinoma). Described as above. The gist of the method: as §1
For assay [10], the system named is LS-1034 (Colorectal Carcinoma). The description is as above. The gist of the method:
as §1

In assay [11] the test system is MDA-MB-415 (Breast Carcinoma). The description is as above. The gist of the method:
as §1

Assay [12] has as its system IA-LM (Non-Small Cell Lung Carcinoma). The assay is described as above. The gist of the method: as §1
Assay [13] deals with SK-CO-1 (Colorectal Carcinoma). The assay is described as above. The gist of the method: as §1
Assay [14] deals with IST-MEL1 (Melanoma). The assay is described as above. The gist of the method:
as §1

Assay [15] has as its system CPC-N (Small Cell Lung Carcinoma). As to the kind of experiment: combination Emax (second highest fraction inhibited in the dose matrix, 72 h); higher = more inhibition; extreme values may be limits of the assay. The gist of the method: as §1
In assay [16] the test system is LS-1034 (Colorectal Carcinoma). The assay is described as above. The gist of the method: as §1
Assay [17] concerns MDA-MB-415 (Breast Carcinoma). The description is as above. The gist of the method: as §1
The test system of assay [18] is SCC-4 (Oral Cavity Carcinoma). Described as above. The gist of the method: as §1
Assay [19] concerns MS-1 (Small Cell Lung Carcinoma). The description is as above. The gist of the method: as §1
For assay [20], the system named is ZR-75-30 (Breast Carcinoma). The assay is described as above. The gist of the method:
as §1
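Wherever Bliss excess, mean over the matrix is given: after 72 h of two-drug dosing.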

Turning to `O=C(c1cc(Cc2n[nH]c(=O)c3ccccc23)ccc1F)N1CCN(C(=O)C2CC2)CC1` [Olaparib] + COc1nnc2ccc(N3CCC(c4ccc(OCCN5CCN(C)C(=O)[C@H]5C)cc4)CC3)nn12 [AZD5153] (first compound max 10 µM, 7x7, partner max 1 µM), the Bliss excess in [1] was -0.0557; in [2], -0.0461; in assay [3], -0.0669; in assay [4] it was -0.0333; in [5] it was -0.0369; in assay [6], 0.0018. The Bliss excess in [7] is -0.0546; in assay [8] it was -0.0749; in assay [9], -0.0582; in assay [10] it was -0.0339; in [11] it was -0.0222; in assay [12], -0.153. Besides, the Bliss excess is -0.0441 in assay [13] and -0.045 in [14]. Further, the “combination Emax” value in [15] amounted to 0.369; in assay [16], 0.453; in assay [17], 0.362; in [18] it was 0.322; in assay [19] it was 0.757; in assay [20], 0.207.

For `O=C(c1cc(Cc2n[nH]c(=O)c3ccccc23)ccc1F)N1CCN(C(=O)C2CC2)CC1` [Olaparib] + Cc1c2c(nn1C)CSCc1cc(n(C)n1)CSc1cc(c3ccccc3c1)OCCCc1c(C(=O)O)n(C)c3c-2c(Cl)ccc13 [AZD5991] (first compound max 10 µM, 7x7, partner max 1 µM), the Bliss excess in assay [1] is -0.0555; in [2], -0.0224; in assay [3], -0.006; in assay [4], 0.0434; in [5], -0.0206; in assay [6] it was -0.0366. The Bliss excess was -0.0503 in assay [7]; -0.0583 in assay [8]; 0.0223 in assay [9]; -0.0414 in [10]; -0.0838 in assay [11]; -0.063 in [12]. For the same molecule, the Bliss excess in assay [13] is -0.0091; in assay [14], -0.0488. In addition, the “combination Emax” value came out at 0.215 in [15]; 0.0008 in [16]; 0.339 in assay [17]; 0.128 in assay [18]; 0.501 in assay [19]; 0.197 in [20].

As for `N#Cc1cnc(Nc2cc(NC[C@H]3CNCCO3)c(C(F)(F)F)cn2)cn1` [SRA737] + CCc1c2c(nc3ccc(O)cc13)-c1cc3c(c(=O)n1C2)COC(=O)[C@]3(O)CC [SN-38] (first compound max 10 µM, 7x7, partner max 0.3 µM), the Bliss excess in assay [1] was 0.0694; in assay [2], 0.0384; in assay [3] it was -0.0085; in assay [4], -0.0374; in assay [5] it was 0.0442; in assay [6], -0.0004. Besides, the Bliss excess is 0.0367 in assay [7]; -0.0592 in [8]; -0.0179 in assay [9]; 0.083 in assay [10]; 0.0404 in [11]; -0.0646 in assay [12]. Further, the Bliss excess in [13] was -0.0667; in [14], -0.0613. The “combination Emax” value was 0.872 in assay [15]; 0.873 in assay [16]; 0.431 in assay [17]; 0.893 in assay [18]; 0.799 in assay [19]; 0.124 in assay [20].

As to `N#Cc1cnc(Nc2cc(NC[C@H]3CNCCO3)c(C(F)(F)F)cn2)cn1` [SRA737] + Nc1ccn([C@@H]2O[C@H](CO)[C@@H](O)C2(F)F)c(=O)n1 [Gemcitabine] (first compound max 10 µM, 7x7, partner max 0.3 µM), the Bliss excess in assay [1] worked out at 0.035; in assay [2], 0.0954; in assay [3] it was 0.0007; in assay [4], 0.0489; in [5], 0.117; in [6], 0.0843. For the same molecule, the Bliss excess in assay [7] is 0.0518; in assay [8], 0.0349; in assay [9], -0.0293; in assay [10] it was 0.145; in assay [11] it was 0.115; in assay [12], -0.0365. The Bliss excess was 0.0698 in assay [13] and -0.0023 in assay [14]. In addition, the “combination Emax” value in assay [15] was determined as 0.916; in [16] it was 0.919; in assay [17] it was 0.638; in assay [18] it was 0.758; in [19] it was 0.945; in [20] it was 0.312.

`N#Cc1cnc(Nc2cc(NC[C@H]3CNCCO3)c(C(F)(F)F)cn2)cn1` [SRA737] + O=c1[nH]cc(F)c(=O)[nH]1 [5-Fluorouracil] (first compound max 10 µM, 7x7, partner max 20 µM): the Bliss excess in assay [1] is -0.036; in assay [2], 0.0006; in assay [3], 0.0141; in assay [4], 0.0181; in assay [5] it was 0.0215; in [6] it was 0.036. The Bliss excess in assay [7] is 0.0005; in assay [8], -0.0281; in [9], -0.0088; in [10], 0.0936; in assay [11], 0.057; in [12], -0.0622. For the same molecule, the Bliss excess in assay [13] was 0.0188; in assay [14], -0.0223. The “combination Emax” value in [15] was 0.861; in [16] it was 0.77; in [17] it was 0.381; in assay [18] it was 0.628; in assay [19], 0.584; in [20], 0.169.

As to `Cc1nc(-c2cn3c(n2)-c2ccc(-c4cnn(C(C)(C)C(N)=O)c4)cc2OCC3)n(C(C)C)n1` [Taselisib] + O=C(Nc1ccc2[nH]nc(-c3ccncc3)c2c1)[C@@H]1CCN(CC(=O)N2CCN(c3ccc(-c4ncccn4)cc3)CC2)C1 [SCH772984] (first compound max 10 µM, 7x7, partner max 5 µM), the Bliss excess in [1] stood at 0.0196; in [2] it was 0.0551; in assay [3] it was 0.0633; in assay [4], 0.0832; in [5], 0.0056; in assay [6], 0.224. Also, the Bliss excess in assay [7] is 0.0656; in assay [8], 0.0164; in assay [9], 0.004; in assay [10], 0.0307; in assay [11], -0.0012; in assay [12] it was -0.0058. The Bliss excess in assay [13] was 0.0763; in assay [14], 0.106. In addition, the “combination Emax” value in assay [15] was 0.484; in assay [16] it was 0.72; in assay [17], 0.846; in assay [18], 0.911; in assay [19], 0.48; in assay [20], 0.706.

Take `CC1(C)CCC(CN2CCN(c3ccc(C(=O)NS(=O)(=O)c4ccc(NCC5CCOCC5)c([N+](=O)[O-])c4)c(Oc4cnc5[nH]ccc5c4)c3)CC2)=C(c2ccc(Cl)cc2)C1` [Venetoclax] + CS(=O)(=O)CCNCc1ccc(-c2ccc3ncnc(Nc4ccc(OCc5cccc(F)c5)c(Cl)c4)c3c2)o1 [Lapatinib] (first compound max 1 µM, 7x7, partner max 10 µM): the Bliss excess is -0.019 in assay [1]; -0.0001 in assay [2]; -0.014 in assay [3]; -0.0371 in [4]; -0.0319 in assay [5]; -0.0355 in assay [6]. The Bliss excess in [7] was -0.0254; in assay [8] it was -0.0355; in assay [9], -0.0146; in assay [10], -0.0412; in [11] it was -0.047; in [12], -0.0665. In addition, the Bliss excess was 0.0109 in [13] and -0.0234 in [14]. Further, the “combination Emax” value in assay [15] amounted to 0.148; in assay [16] it was 0.322; in assay [17] it was 0.242; in assay [18] it was 0.368; in assay [19] it was 0.473; in assay [20] it was 0.823.
